Experimental data published in US6350776B1, “Method of treating proliferative disease with lycopene and alpha-tocopherol” (priority 1999, dated 2002).

Experiments:
[1] = tested on: Prostate cancer cells (DU-145); experiment: Cell proliferation assay (cell count), DU-145; assay type: cell-based, human; details: for potentiation of the anti-proliferative effect of lycopene: DU-145, 50 μM of the compound with 1 μM lycopene (FIG. 3)
Method: (§1) Culture media and antibiotics were from Gibco (Grand Island, N.Y., USA). Fetal calf serum was from PAA Labor (Linz, Austria), Human prostate carcinoma, androgen insensitive, cell lines DU-145 and PC-3, colon carcinoma cell line Caco-2, hepatoma cell line HepG2, and rat aortic smooth muscle cell line A7r5 were from American Type Culture Collection (Rockville, Md., USA). DU-146 cells were grown in minimum essential medium (EM), PC-3 cells in F-12K medium, both containing antibiotics and 10% fetal calf serum (FCS). Caco-2 cells were grown in MEM containing 20% FCS. HepG2 cells were grown in MEM containing 10% FCS, and A7r5 cells were grown in DMEM containing 10% FCS. Cell proliferation was assayed using two methods, cell count and thymidine incorporation: Cell count. Cells were seeded into 6-multiwell plates (20,000 cells/well). When cells reached approximately 50% confluence, the indicated concentrations of the compounds were added. THF was added to control cells to account for the effect of the solvent in the compound solutions. Cells were washed, trypsinized, resuspended and counted in duplicate at the indicated times by trypan blue dye exclusion with a hemocytometer. […] The values in Table 1 are expressed as percent of inhibition of proliferation as compared to proliferation of control cells treated with solvent alone. Prostate cancer cells (DU-145), hepatoma cells (HepG2), colon carcinoma cells (Caco-2) and rat aortic smooth muscle cells (A7r5) were treated with different concentrations of lycopene as indicated and 50 μM alpha-tocopherol for 24 hours. […] Proliferation was assessed as indicated in the Materials and Methods. Data are means±SD of five experiments in duplicate.

[2] = tested on: hepatoma cells (HepG2); experiment: Cell proliferation assay (thymidine incorporation), HepG2; assay type: cell-based, human; details: 50 μM alpha-tocopherol, lycopene 0 μM, 24 hours, vs solvent control
Method: (§2) Culture media and antibiotics were from Gibco (Grand Island, N.Y., USA). Fetal calf serum was from PAA Labor (Linz, Austria), Human prostate carcinoma, androgen insensitive, cell lines DU-145 and PC-3, colon carcinoma cell line Caco-2, hepatoma cell line HepG2, and rat aortic smooth muscle cell line A7r5 were from American Type Culture Collection (Rockville, Md., USA). DU-146 cells were grown in minimum essential medium (EM), PC-3 cells in F-12K medium, both containing antibiotics and 10% fetal calf serum (FCS). Caco-2 cells were grown in MEM containing 20% FCS. HepG2 cells were grown in MEM containing 10% FCS, and A7r5 cells were grown in DMEM containing 10% FCS.
(§3) Cell proliferation was assayed using two methods, cell count and thymidine incorporation:
(§4) Thymidine incorporation. Colon carcinoma cells (Caco-2) and hepatoma cells (HepG2) seeded into 6 multiwell plates (30,000 cells/well) after treatment were pulsed with [^3H] thymidine (0.5 μCi per well) for two hours. […] The radioactivity incorporated into the acid-insoluble material was determined in a liquid scintillation analyzer.
(§5) The values in Table 1 are expressed as percent of inhibition of proliferation as compared to proliferation of control cells treated with solvent alone. […] Proliferation was assessed as indicated in the Materials and Methods. […]

[3] = tested on: colon carcinoma cells (Caco-2); experiment: Cell proliferation assay (thymidine incorporation), Caco-2; assay type: cell-based, human; details: 50 μM alpha-tocopherol, lycopene 0 μM, 24 hours, vs solvent control
Method: as §2, §3, §4, §5

[4] = tested on: rat aortic smooth muscle cells (A7r5); experiment: Cell proliferation assay (cell count), A7r5; assay type: cell-based; details: 50 μM alpha-tocopherol, lycopene 0 μM, 24 hours, vs solvent control
Method: as §1, with “alone.” for “alone. Prostate cancer cells (DU-145), hepatoma cells (HepG2), colon carcinoma cells (Caco-2) and rat aortic smooth muscle cells (A7r5) were treated with different concentrations of lycopene as indicated and 50 μM alpha-tocopherol for 24 hours.”, “Data are means±SD of five experiments in duplicate.” left out

[5] = tested on: prostate carcinoma cell proliferation; details: in vitro studies, background; cited from earlier work

Cc1c(C)c2c(c(C)c1O)CCC(C)(CCCC(C)CCCC(C)CCCC(C)C)O2 (racemic) [Alpha-Tocopherol, DL-alpha-tocopherol]
percent of inhibition of proliferation ([1]; DU 145, 50 μM alpha-tocopherol, lycopene 0 μM, 24 hours, vs solvent control): 40 ± 6% | potentiation of the anti-proliferative effect of lycopene [1]: potentiates the anti-proliferative effect of lycopene | percent of inhibition of proliferation [2]: 5 ± 1% | percent of inhibition of proliferation [3]: 25 ± 3% | percent of inhibition of proliferation [4]: 40 ± 5%

Cc1cc(O)c(C)c2c1O[C@](C)(CCC[C@H](C)CCC[C@H](C)CCCC(C)C)CC2 (racemic) [β-tocopherol, DL-β-tocopherol]
potentiation of the anti-proliferative effect of lycopene [1]: this effect is specific to alpha-tocopherol as compared to other anti-oxidants

O=C1O[C@H]([C@@H](O)CO)C(O)=C1O [ascorbic acid, L-ascorbic acid]
potentiation of the anti-proliferative effect of lycopene [1]: this effect is specific to alpha-tocopherol as compared to other anti-oxidants

CC(C)=CCC/C(C)=C/C=C/C(C)=C/C=C/C(C)=C/C=C/C=C(C)/C=C/C=C(C)/C=C/C=C(\C)CCC=C(C)C [lycopene]
concentrations with inhibitory effect on prostate carcinoma cell proliferation [5]: ≥ 50 µM

CC(C)(Sc1cc(C(C)(C)C)c(O)c(C(C)(C)C)c1)Sc1cc(C(C)(C)C)c(O)c(C(C)(C)C)c1 [probucol]
potentiation of the anti-proliferative effect of lycopene [1]: this effect is specific to alpha-tocopherol as compared to other anti-oxidants
